# Source: patent publication US20230148005A1, “MACROCYCLIC COMPOUNDS AND USES THEREOF” (THESEUS PHARMACEUTICALS, INC., priority 2020, published 2023)
# pIC50: −log10 of the molar value.
# How the values were obtained:
# [1] = target: Ba/F3 EGFR-Del19/C797S (Homo sapiens, UniProt P00533, C797S, cells depend on it, form not given); test: Ba/F3 viability assay (CellTiter-Glo), DC; type: cell-based; conditions: anti-proliferation, read-out: BaF3 DC IC50
# Method in brief: (§1)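 Read-out: viability signal, used as the measure of proliferation inhibition by test compounds.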
# [2] = target: Ba/F3 EGFR-Del19/T790M (Homo sapiens, UniProt P00533, T790M, cells depend on it, form not given); test: Ba/F3 viability assay (CellTiter-Glo), DT; type: cell-based; conditions: anti-proliferation, read-out: BaF3 DT IC50
# Chain of Ba/F3 EGFR-Del19/T790M (P00533 with tags, fused parts or gaps DEL746-750/T790M, form open): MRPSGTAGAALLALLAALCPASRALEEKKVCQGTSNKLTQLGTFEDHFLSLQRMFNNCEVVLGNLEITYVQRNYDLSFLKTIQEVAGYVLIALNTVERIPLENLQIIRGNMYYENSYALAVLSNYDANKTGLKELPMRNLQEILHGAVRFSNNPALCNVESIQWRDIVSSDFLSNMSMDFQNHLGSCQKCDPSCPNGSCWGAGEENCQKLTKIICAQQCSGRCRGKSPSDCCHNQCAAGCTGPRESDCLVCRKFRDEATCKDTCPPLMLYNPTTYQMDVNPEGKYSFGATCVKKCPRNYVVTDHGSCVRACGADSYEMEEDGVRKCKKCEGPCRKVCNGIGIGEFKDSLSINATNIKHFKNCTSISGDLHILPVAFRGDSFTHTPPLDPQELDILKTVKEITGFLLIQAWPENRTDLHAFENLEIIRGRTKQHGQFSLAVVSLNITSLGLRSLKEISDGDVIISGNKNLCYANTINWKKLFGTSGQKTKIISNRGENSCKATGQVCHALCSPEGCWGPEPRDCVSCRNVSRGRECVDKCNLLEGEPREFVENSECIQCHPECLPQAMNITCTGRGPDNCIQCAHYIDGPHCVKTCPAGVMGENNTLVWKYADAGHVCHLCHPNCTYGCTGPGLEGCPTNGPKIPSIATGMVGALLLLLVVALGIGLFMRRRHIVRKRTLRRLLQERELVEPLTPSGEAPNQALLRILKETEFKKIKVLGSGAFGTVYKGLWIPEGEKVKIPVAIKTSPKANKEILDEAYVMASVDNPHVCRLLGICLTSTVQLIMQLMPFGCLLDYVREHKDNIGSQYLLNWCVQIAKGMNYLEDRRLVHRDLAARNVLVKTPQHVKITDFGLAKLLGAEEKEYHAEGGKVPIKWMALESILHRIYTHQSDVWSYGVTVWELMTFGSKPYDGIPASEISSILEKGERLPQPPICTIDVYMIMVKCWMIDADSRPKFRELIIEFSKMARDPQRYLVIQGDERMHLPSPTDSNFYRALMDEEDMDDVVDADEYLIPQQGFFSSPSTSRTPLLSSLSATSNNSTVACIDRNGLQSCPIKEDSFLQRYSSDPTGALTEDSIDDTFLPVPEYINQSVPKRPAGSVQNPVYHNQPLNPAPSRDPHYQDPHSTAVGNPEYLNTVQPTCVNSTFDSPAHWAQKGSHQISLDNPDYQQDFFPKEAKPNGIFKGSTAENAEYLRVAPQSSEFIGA
# Method in brief: as §1
# [3] = target: EGFR^L858R/T790M/C^797S (Homo sapiens, UniProt P00533, C797S/L858R/T790M); test: in vitro kinase assay (HTRF KinEASE-TK kit), LTC; type: biochemical; conditions: kinase inhibition
# Chain of EGFR^L858R/T790M/C^797S (P00533 25-1210 T790M/C797S/L858R): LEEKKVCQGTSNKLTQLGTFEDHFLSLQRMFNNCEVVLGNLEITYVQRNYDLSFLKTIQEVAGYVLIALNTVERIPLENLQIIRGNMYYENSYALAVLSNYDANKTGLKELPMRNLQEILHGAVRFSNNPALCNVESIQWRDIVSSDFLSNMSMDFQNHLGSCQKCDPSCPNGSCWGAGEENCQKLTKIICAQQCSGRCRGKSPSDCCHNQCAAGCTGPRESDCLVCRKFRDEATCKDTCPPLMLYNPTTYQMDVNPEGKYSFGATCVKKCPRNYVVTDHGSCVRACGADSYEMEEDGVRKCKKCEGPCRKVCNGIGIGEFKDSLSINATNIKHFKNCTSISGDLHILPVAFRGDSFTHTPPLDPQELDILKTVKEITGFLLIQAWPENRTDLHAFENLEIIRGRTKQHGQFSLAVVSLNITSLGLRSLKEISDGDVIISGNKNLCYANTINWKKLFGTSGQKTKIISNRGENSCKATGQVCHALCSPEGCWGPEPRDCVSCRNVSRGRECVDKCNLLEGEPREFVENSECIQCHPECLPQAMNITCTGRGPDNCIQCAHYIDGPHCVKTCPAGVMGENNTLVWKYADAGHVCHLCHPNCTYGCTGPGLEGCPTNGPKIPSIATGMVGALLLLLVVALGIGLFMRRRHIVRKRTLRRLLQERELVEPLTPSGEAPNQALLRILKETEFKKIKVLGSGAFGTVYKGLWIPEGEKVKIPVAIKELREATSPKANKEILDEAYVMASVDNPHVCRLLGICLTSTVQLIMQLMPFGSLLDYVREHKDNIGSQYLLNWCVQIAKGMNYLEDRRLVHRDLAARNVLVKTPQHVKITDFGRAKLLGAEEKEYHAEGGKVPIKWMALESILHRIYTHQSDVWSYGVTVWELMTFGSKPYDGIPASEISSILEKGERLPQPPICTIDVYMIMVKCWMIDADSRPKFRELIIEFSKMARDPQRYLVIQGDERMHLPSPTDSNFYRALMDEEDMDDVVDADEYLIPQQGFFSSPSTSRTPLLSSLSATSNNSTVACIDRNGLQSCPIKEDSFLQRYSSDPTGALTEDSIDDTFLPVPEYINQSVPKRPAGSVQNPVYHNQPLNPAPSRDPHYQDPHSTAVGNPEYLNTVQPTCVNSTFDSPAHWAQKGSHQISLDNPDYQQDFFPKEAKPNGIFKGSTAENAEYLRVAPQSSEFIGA
# Description: (§2) Assays using an in vitro kinase assay kit (HTRF KinEASE-TK kit) can be used to study the inhibitory activity of compounds described herein with respect to EGFR mutants such as EGFR^L858R, EGFR^L58R/T790M, and EGFR^L858R/T790M/C^797S.
# [4] = target: Ba/F3 EGFR-Del19/T790M/C797S (Homo sapiens, UniProt P00533, T790M/C797S, cells depend on it, form not given); test: Ba/F3 viability assay (CellTiter-Glo), DTC; type: cell-based; conditions: anti-proliferation, read-out: BaF3 DTC IC50
# Method in brief: as §1
# [5] = system: Ba/F3 Parental; test: Ba/F3 viability assay (CellTiter-Glo), parental; type: cell-based; conditions: Mus musculus, BaF3, anti-proliferation
# Method in brief: as §1
# [6] = target: EGFR^L58R/T790M (Homo sapiens, UniProt P00533, L858R/T790M); test: in vitro kinase assay (HTRF KinEASE-TK kit), LT; type: biochemical; conditions: kinase inhibition
# Chain of EGFR^L58R/T790M (P00533 25-1210 T790M/L858R): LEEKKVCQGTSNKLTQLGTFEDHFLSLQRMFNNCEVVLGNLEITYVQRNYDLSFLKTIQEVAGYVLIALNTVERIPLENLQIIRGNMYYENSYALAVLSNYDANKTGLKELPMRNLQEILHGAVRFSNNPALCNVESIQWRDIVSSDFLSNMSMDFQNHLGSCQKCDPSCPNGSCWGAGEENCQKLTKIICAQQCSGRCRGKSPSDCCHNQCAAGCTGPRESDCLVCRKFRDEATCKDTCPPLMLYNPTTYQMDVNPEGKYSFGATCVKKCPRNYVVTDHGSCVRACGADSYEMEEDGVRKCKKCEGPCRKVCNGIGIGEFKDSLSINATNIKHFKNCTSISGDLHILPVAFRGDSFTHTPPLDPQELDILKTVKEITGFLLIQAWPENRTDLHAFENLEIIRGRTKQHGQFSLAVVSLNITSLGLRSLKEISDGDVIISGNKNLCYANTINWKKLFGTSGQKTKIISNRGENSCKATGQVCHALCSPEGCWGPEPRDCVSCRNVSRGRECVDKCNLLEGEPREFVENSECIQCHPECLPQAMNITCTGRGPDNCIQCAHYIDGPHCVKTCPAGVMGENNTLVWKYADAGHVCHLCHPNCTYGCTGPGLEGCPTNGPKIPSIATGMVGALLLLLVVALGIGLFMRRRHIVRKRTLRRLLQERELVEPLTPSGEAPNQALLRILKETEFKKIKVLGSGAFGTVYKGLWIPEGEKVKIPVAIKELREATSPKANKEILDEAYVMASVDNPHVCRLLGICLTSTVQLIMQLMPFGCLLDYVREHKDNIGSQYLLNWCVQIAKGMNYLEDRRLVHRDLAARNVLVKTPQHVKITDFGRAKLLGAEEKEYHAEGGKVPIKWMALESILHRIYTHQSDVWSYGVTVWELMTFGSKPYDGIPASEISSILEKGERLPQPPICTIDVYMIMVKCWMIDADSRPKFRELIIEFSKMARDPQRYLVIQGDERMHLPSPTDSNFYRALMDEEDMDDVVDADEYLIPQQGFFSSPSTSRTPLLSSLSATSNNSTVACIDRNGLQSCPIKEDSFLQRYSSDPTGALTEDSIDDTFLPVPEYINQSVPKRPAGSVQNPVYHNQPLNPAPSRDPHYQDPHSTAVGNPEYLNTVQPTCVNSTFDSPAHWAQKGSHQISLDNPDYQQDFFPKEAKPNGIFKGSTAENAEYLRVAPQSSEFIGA
# Description: as §2
# [7] = target: EGFR^L858R (Homo sapiens, UniProt P00533, L858R); test: in vitro kinase assay (HTRF KinEASE-TK kit), L; type: biochemical; conditions: kinase inhibition
# Description: as §2
# Chain of Ba/F3 EGFR-Del19/C797S (P00533 with tags, fused parts or gaps DEL746-750/C797S, form open): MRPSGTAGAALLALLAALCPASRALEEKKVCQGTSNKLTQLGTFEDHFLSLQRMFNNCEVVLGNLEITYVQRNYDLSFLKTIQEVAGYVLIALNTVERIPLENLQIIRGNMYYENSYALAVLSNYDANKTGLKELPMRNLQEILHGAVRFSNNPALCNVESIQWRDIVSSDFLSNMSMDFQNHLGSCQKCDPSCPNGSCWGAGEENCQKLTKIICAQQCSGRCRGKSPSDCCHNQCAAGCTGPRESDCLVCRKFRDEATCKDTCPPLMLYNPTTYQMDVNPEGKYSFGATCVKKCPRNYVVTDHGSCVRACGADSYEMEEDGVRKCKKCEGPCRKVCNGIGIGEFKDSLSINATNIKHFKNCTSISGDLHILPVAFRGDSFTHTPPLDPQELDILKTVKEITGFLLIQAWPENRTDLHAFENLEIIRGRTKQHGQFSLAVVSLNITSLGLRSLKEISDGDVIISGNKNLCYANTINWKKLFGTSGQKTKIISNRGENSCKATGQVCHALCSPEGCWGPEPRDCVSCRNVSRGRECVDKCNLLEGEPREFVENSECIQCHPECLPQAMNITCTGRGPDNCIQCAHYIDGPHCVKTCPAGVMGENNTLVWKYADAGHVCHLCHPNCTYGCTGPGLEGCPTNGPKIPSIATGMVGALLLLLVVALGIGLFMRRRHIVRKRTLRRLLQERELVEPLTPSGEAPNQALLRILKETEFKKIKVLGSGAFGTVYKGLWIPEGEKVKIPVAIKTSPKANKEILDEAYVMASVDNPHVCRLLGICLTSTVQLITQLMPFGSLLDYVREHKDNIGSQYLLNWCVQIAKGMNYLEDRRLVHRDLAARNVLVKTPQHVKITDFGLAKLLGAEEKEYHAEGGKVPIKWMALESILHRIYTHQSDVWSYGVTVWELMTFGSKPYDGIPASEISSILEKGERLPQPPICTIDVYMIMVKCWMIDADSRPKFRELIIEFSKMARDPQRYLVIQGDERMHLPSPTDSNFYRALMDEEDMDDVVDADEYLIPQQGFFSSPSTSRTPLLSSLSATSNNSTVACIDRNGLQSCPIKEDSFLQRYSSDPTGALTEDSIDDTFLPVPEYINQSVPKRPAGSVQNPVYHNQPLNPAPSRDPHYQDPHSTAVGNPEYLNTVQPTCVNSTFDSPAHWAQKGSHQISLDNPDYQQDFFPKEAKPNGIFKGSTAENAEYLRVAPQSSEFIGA
Compound,GI50 [1],GI50 [2],pIC50 [3],GI50 [4],pIC50 [5],pIC50 [6],pIC50 [7]
"C[C@H]1CCOc2c(cnn2C)-c2nccc(n2)Nc2cc3c(cn2)c(-c2ccc(CN(C)CCF)n2C)nn31 [(184), N-[[5-[(16S)-11,16-dimethyl-13-oxa-2,6,10,11,17,18,22,25-octazapentacyclo[15.5.2.1^3,7.0^8,12.0^20,24]pentacosa-1(22),3,5,7(25),8(12),9,18,20,23-nonaen-19-yl]-1-methyl-pyrrol-2-yl]methyl]-2-fluoro-N-methyl-ethanamine]",10 to 100 nM,< 10 nM,> 8.00,< 10 nM,6.00 to 7.00,> 8.00,> 8.00
C[C@H]1CCOc2c(cnn2C)-c2nccc(n2)Nc2cc3c(cn2)c(-c2ccc(CN4CCNCC4)n2C)nn31 [(119)],< 10 nM,< 10 nM,> 8.00,< 10 nM,6.00 to 7.00,> 8.00,> 8.00
C[C@H]1CCOc2c(cnn2C)-c2nccc(n2)Nc2cc3c(cn2)c(N2CCN(C4CC4)CC2)nn31 [(97)],100 to 1000 nM,100 to 1000 nM,7.00 to 8.00,100 to 1000 nM,≤ 6.00,> 8.00,6.00 to 7.00
CN1CCN(CC2CCN(c3nn4c5cc(ncc35)Nc3ccnc(n3)-c3cnn(C)c3OCCC4)C2)CC1 (centres unmarked) [(57)],10 to 100 nM,10 to 100 nM,> 8.00,10 to 100 nM,6.00 to 7.00,> 8.00,7.00 to 8.00
C[C@H]1CCOc2c(cnn2C)-c2nccc(n2)Nc2cc3c(cn2)c(-c2ncc(CN4CCOCC4)s2)nn31 [(143)],10 to 100 nM,10 to 100 nM,> 8.00,10 to 100 nM,≤ 6.00,> 8.00,7.00 to 8.00
CCn1c(CN2CCN(C3CC3)CC2)ccc1-c1nn2c3cc(ncc13)Nc1ccnc(n1)-c1cnn(C)c1OCC[C@@H]2C [(125)],10 to 100 nM,< 10 nM,> 8.00,< 10 nM,6.00 to 7.00,> 8.00,7.00 to 8.00
CCn1ccc(-c2nn3c4cc(ncc24)Nc2ccnc(n2)-c2cnn(C)c2OCCCC3C)n1 (centres unmarked) [(85)],10 to 100 nM,< 10 nM,> 8.00,< 10 nM,≤ 6.00,> 8.00,7.00 to 8.00
C[C@H]1CCOc2c(cnn2C)-c2nccc(n2)Nc2cc3c(cn2)c(-c2cccc(CN(C)C)n2)nn31 [(182)],10 to 100 nM,10 to 100 nM,> 8.00,< 10 nM,6.00 to 7.00,> 8.00,7.00 to 8.00
COC(=O)C1CCCN1c1nn2c3cc(ncc13)Nc1ccnc(n1)-c1cnn(C)c1OCCC2 (centres unmarked) [(61)],100 to 1000 nM,100 to 1000 nM,7.00 to 8.00,100 to 1000 nM,≤ 6.00,> 8.00,6.00 to 7.00
CC(C)NCc1ccc(-c2nn3c4cc(ncc24)Nc2ccnc(n2)-c2cnn(C)c2OCC[C@@H]3C)n1C [(188)],< 10 nM,< 10 nM,> 8.00,< 10 nM,6.00 to 7.00,> 8.00,> 8.00
C[C@H]1CCOc2c(cnn2C)-c2nccc(n2)Nc2cc3c(cn2)c(-c2cccc(N4CC[C@H](N(C)C)C4)c2)nn31 [(167)],< 10 nM,< 10 nM,> 8.00,< 10 nM,6.00 to 7.00,> 8.00,> 8.00
CN1CCN(CC2CCCN2c2nn3c4cc(ncc24)Nc2ccnc(n2)-c2cnn(C)c2OCCC3)CC1 (centres unmarked) [(10)],100 to 1000 nM,100 to 1000 nM,> 8.00,100 to 1000 nM,6.00 to 7.00,> 8.00,6.00 to 7.00
CCn1cc(CN2CCN(C)CC2)cc1-c1nn2c3cc(ncc13)Nc1ccnc(n1)-c1cnn(C)c1OCCC2C (centres unmarked) [(82)],10 to 100 nM,10 to 100 nM,> 8.00,10 to 100 nM,7.00 to 8.00,> 8.00,6.00 to 7.00
CCn1cc(-c2nn3c4cc(ncc24)Nc2ccnc(n2)-c2cnn(C)c2OCCC3C)cc1CN1CCN(C(C)C)CC1 (centres unmarked) [(80)],< 10 nM,< 10 nM,> 8.00,< 10 nM,7.00 to 8.00,> 8.00,> 8.00
C[C@H]1CCOc2c(cnn2C)-c2nccc(n2)Nc2cc3c(cn2)c(-c2ccc(CN4CCOCC4)o2)nn31 [(164)],10 to 100 nM,< 10 nM,> 8.00,< 10 nM,6.00 to 7.00,> 8.00,> 8.00
Cc1nn(CCC(C)(C)O)cc1-c1nn2c3cc(ncc13)Nc1ccnc(n1)-c1cnn(C)c1OCCCC2C (centres unmarked) [(89)],10 to 100 nM,10 to 100 nM,> 8.00,10 to 100 nM,6.00 to 7.00,> 8.00,7.00 to 8.00
"CC1CCOc2c(cnn2C)-c2nccc(n2)Nc2cc3c(cn2)c(-c2cccn2CCN(C)C)nn31 (centres unmarked) [(12), 2-[2-(11,16-dimethyl-13-oxa-2,6,10,11,17,18,22,25-octazapentacyclo[15.5.2.13,7.08,12.020,24]pentacosa-1(22),3,5,7(25),8(12),9,18,20,23-nonaen-19-yl)pyrrol-1-yl]-N,N-dimethyl-ethanamine]",10 to 100 nM,10 to 100 nM,> 8.00,10 to 100 nM,6.00 to 7.00,> 8.00,7.00 to 8.00
C[C@H]1CCOc2c(cnn2C)-c2nccc(n2)Nc2cc3c(cn2)c(-c2ccc(CN(C)C)o2)nn31 [(162)],< 10 nM,< 10 nM,> 8.00,< 10 nM,6.00 to 7.00,> 8.00,> 8.00
CC(C)N1CCN(Cc2csc(-c3nn4c5cc(ncc35)Nc3ccnc(n3)-c3cnn(C)c3OCC[C@@H]4C)n2)CC1 [(118)],100 to 1000 nM,100 to 1000 nM,> 8.00,10 to 100 nM,≤ 6.00,> 8.00,7.00 to 8.00
C[C@H]1CCCOc2c(cnn2C)-c2nccc(n2)Nc2cc3c(cn2)c(N2CCC2)nn31 [(78)],10 to 100 nM,10 to 100 nM,> 8.00,10 to 100 nM,6.00 to 7.00,> 8.00,7.00 to 8.00
C[C@H]1CCOc2c(cnn2C)-c2nccc(n2)Nc2cc3c(cn2)c(N2CCOCC2)nn31 [(104)],10 to 100 nM,10 to 100 nM,> 8.00,10 to 100 nM,6.00 to 7.00,> 8.00,7.00 to 8.00
C[C@H]1CCOc2c(cnn2C)-c2nccc(n2)Nc2cc3c(cn2)c(-c2cc(CN4CCN(C)CC4)n(C)c2)nn31 [(144)],< 10 nM,< 10 nM,> 8.00,< 10 nM,7.00 to 8.00,> 8.00,> 8.00
Cc1ccc(-c2nn3c4cc(ncc24)Nc2ccnc(n2)-c2cnn(C)c2OCC[C@@H]3C)n1C [(150)],10 to 100 nM,10 to 100 nM,> 8.00,10 to 100 nM,≤ 6.00,> 8.00,7.00 to 8.00
C[C@H]1CCOc2c(cnn2C)-c2nccc(n2)Nc2cc3c(cn2)c(N2CC[C@H](N(C)CCCF)C2)nn31 [(180)],10 to 100 nM,10 to 100 nM,> 8.00,< 10 nM,6.00 to 7.00,> 8.00,7.00 to 8.00
C[C@H]1CCOc2c(cnn2C)-c2nccc(n2)Nc2cc3c(cn2)c(-c2ccn(C)c2)nn31 [(109)],< 10 nM,< 10 nM,> 8.00,< 10 nM,6.00 to 7.00,> 8.00,> 8.00
CC1CCOc2c(cnn2C)-c2nccc(n2)Nc2cc3c(cn2)c(-c2cnn(C4CC4)c2)nn31 (centres unmarked) [(64)],10 to 100 nM,10 to 100 nM,> 8.00,10 to 100 nM,6.00 to 7.00,> 8.00,7.00 to 8.00
C[C@H]1CCOc2c(cnn2C)-c2nccc(n2)Nc2cc3c(cn2)c(N2CC[C@H](O)C2)nn31 [(113)],< 10 nM,< 10 nM,> 8.00,< 10 nM,6.00 to 7.00,> 8.00,> 8.00
C[C@H]1CCOc2c(cnn2C)-c2nccc(n2)Nc2cc3c(cn2)c(N2CC[C@@H](CN(C)CCF)C2)nn31 [(175)],< 10 nM,< 10 nM,> 8.00,< 10 nM,7.00 to 8.00,> 8.00,> 8.00
C[C@H]1CCOc2c(cnn2C)-c2nccc(n2)Nc2cc3c(cn2)c(N2CC[C@H](N(C)C)C2)nn31 [(178)],10 to 100 nM,10 to 100 nM,> 8.00,< 10 nM,6.00 to 7.00,> 8.00,7.00 to 8.00
